In patent US20140256790A1, “Methods for Identifying and Compounds Useful for Increasing the Functional Activity and Cell Surface Expression of CF-Associated Mutant Cystic Fibrosis Transmembrance Conductance Regulator” (priority 2008, published 2014):

What was measured:
[1] = tested on: ΔF508-CFTR; type: cell-based, human; conditions: rescreen with repropagated Ad-siRNA; ΔF508-CFTR and YFP adenovirus; 10 microM forskolin and 100 microM genistein; threshold −2
Method: Accordingly, an assay to monitor CFTR-halide flux by using a reporter protein, halide-sensitive fluorescent protein YFP, is developed to measure the functional activity of CFTR. Cells expressing this reporter protein show enhanced fluorescence quenching of YFP by extracellular isomolar iodide solutions in the presence of activated CFTR. This is caused by the increased flux of iodide across the plasma membrane by CFTR. The fluorescence quenching is measured on a fluorescence plate reader.
Human lung epithelial cells are isolated from a ΔF508-CFTR patient, obtained after informed consent. These cells are stably transfected with ΔF508-CFTR expression plasmids and are named CFBE41o-cells (Gruenert et al., 2004). […]
CFBE41o-cells are transduced with the YFP fluorescent halide reporter adenoviral vector at a VPU of 2000 viral particles per cell, together with adenoviral vectors expressing ΔF508-CFTR, or as a positive control the wild-type CFTR. […] Plates are read in a fluorescent plate reader, equipped with injectors for the delivery of reagents to the well (Perkin-Elmer Envision 2102). Each well is read for 2 seconds at 485/530 nm (excitation/emission) prior to the addition of 110 microliter iodide-containing buffer (137 mM NaI, 2.7 mM KCl, 10 mM Na2HPO4, 1.76 mM KH2PO4 at pH 7.4). Fluorescent reading is continued for an additional 12 sec, sampling every 200 msec. […]

[2] = tested on: ΔF508 CFTR; experiment: Cell-surface expression of ΔF508 CFTR by cell-surface biotinylation and Western blot in CFBE41o-cells; type: cell-based, human
Method: This analysis allows a more quantitative measurement of the levels of restoration of cell-surface expressed ΔF508 CFTR, as well as the glycosylation status of the ΔF508 CFTR protein (Cheng et al., 1990). A preferred effect of a HIT would be increased cell-surface expression of ΔF508 CFTR, and especially “band C” (Cheng et al., 1990), fully glycosylated ΔF508 CFTR. The assay to measure cell surface expression of ΔF508-CFTR is performed in the following fashion: CFBE41o-cells are seeded in 60 mm cell culture dishes coated with 0.1 mg/mL bovine serum albumin (BSA), 0.03 mg/mL bovine collagen type 1 and 0.01 mg/mL human fibronectin. CFBE41o-cells are cultured in MEM containing 10% Fetal Bovine Serum, 2 mM glutamine, 100 IU/mL penicillin, 0.1 mg/mL streptomycine sulfate and 0.5 mg/mL hygromycin B at 37° C., 5% CO2 in a humidified chamber. One day after seeding, an aliquot of the Ad-siRNA is applied to each well. […] The supernatant is analyzed on Western blots (BioRad Criterion XT gels, 3-8% polyacrylamide #3450131). […] Quantification of the cell surface expression of ΔF508 CFTR was performed with Biorad Quantity One software.
Positive and negative controls for the biotinylation include incubation of cell culture at 27° C. for 48 hrs to correct misfolding and trafficking of ΔF508 CFTR, and omission of Ad-siRNAs respectively. No signal is detected when the biotinylation reagent was omitted. […]
Target sequence in this assay (P13569 other isoform, or with tags, fused parts or gaps DEL508-508): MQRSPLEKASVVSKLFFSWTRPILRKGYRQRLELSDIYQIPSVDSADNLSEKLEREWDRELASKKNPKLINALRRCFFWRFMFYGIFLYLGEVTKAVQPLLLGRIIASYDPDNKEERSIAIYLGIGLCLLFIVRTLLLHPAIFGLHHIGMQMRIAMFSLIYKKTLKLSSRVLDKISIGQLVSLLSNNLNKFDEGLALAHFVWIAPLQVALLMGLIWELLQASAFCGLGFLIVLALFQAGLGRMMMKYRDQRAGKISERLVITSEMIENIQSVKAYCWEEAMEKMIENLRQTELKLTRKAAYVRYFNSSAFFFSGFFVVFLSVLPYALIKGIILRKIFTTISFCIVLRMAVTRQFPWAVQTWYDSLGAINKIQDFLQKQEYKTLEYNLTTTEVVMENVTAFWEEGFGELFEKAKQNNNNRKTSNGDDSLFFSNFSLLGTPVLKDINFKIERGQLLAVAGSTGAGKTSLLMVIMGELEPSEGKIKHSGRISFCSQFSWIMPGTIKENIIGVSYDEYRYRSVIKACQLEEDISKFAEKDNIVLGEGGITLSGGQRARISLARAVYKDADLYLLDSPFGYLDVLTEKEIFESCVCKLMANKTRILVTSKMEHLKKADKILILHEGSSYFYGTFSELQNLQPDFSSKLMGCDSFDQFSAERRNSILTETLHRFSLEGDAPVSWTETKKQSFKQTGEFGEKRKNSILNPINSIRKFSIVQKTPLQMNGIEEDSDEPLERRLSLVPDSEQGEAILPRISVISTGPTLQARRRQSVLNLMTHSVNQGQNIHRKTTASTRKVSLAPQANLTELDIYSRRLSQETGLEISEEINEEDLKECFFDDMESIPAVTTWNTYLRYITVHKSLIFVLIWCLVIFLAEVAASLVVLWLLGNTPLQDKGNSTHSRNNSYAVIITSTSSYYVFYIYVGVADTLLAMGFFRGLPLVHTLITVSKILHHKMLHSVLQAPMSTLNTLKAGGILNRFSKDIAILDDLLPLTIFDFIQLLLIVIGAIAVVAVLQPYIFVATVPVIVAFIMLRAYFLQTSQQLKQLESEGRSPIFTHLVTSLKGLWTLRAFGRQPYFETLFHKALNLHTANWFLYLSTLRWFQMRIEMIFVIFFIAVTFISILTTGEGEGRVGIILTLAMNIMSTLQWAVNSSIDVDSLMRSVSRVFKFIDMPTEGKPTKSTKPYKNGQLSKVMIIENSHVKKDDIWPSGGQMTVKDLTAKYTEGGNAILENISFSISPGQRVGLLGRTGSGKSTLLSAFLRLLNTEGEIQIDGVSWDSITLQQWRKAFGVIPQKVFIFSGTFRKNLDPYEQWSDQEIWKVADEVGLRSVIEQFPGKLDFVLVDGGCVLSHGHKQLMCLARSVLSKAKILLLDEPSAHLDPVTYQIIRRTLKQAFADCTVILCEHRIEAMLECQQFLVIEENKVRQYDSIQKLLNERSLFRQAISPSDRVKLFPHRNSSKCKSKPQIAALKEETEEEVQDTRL

[3] = tested on: ΔF508 CFTR; experiment: Trans-epithelial chloride flux (short-circuit current, Ussing chamber) in CFTR ΔF508 homozygous primary bronchial epithelial cells; conditions: primary CF bronchial epithelial cell culture on filter support; Ad-siRNA knockdown; forskolin 10 μM, genistein 50 μM
Excerpt: A further validation of the correction of ΔF508 CFTR is the correction of trans-epithelial chloride transport in primary bronchial epithelial cell cultures from a CF patient, grown in a filter support. […] A standard drug addition protocol (Devor et al., 2000) can be used to detect transepithelial currents due to CFTR. Short-circuit current (Isc) across HBE primary cultures can be measured as described (Myerburg et al., 2006; Myerburg et al., 2008). Cells cultured on filter supports are mounted in modified Ussing chambers, and the cultures are continuously short-circuited with an automatic voltage clamp (Physiological Instruments, San Diego, Calif.). The basolateral bathing solution composition is: 120 mM NaCl, 25 mM NaHCO3, 3.3 mM KH2PO4, 0.8 mM K2HPO4, 1.2 mN MgCl2, 1.2 mM CaCl2, and 10 mM glucose. A basal-to-apical Cl gradient can be imposed by reducing the NaCl concentration of the apical bathing solution by replacing NaCl with equimolar Na-gluconate. The chambers are maintained at 37° C. and gassed continuously with a mixture of 95% O2-5% CO2 which fixed the pH at 7.4. Following a 5 min equilibration period, the baseline Isc is recorded. Sodium currents are blocked by addition of the epithelial sodium channel (ENaC) blocker, amiloride (10 μM), to the apical bath. […]

Sequence of ΔF508-CFTR (P13569 other isoform, or with tags, fused parts or gaps DEL508-508): as above

## UGT3A2: Ad-siRNA (adenovirus-expressed shRNA) knocking down UGT3A2; KD sequences SEQ ID NO: 56, 57; SEQ 57 used in Table 6 (guide AACATGGTCCGAGTAGAAG; listed as Homo sapiens)
[1]
  Forskolin-Genistein induced halide flux in CFBE41o-: −5.485 fold stdev from the mean of the negative controls
[2]; CFBE41o- cell culture upon TARGET Ad-siRNA, relative to E-cadherin signal, without Ad-siRNAs set at 0, 27° C. for 48 hrs set at 1
  CFTRΔF508 cell surface expression: 0.906
[2]; cell-surface ΔF508 CFTR, band C fully glycosylated / band B core glycosylated, CFBE41o-
  C-band/B-band ratio: 0.278
[3]
  Forskolin-Genistein induced chloride flux in CF primary epithelial cells compared to control cells (non-CF): 22.9%
